Laboratory results reported in patent US11020378B2, “Compounds, compositions and methods for treating insulin resistance” (UNIVERSITE PARIS DESCARTES, priority 2017, dated 2021).
Read-outs that look alike come from different tables or passages of the source.

How the values were obtained:
PI3K/Akt pathway = assay: Luc-Akt-PH/YFP-membrane BRET in HEK293T cells (recruitment of Akt to the membrane); format: cell-based; settings: for effect on the recruitment of kinase Akt to the membrane: in the absence of the hormone
Excerpt: To measure the activity of the PI3-kinase pathway by the BRET technique, HEK293T cells are transfected with plasmids allowing, on the one hand, the expression of the PH (Pleckstrin Homology) domain of the Akt protein which has been fused to the luciferase and, on the other hand, a membrane-addressing sequence which has been fused to the YFP protein. When the PH domain of Akt is recruited to the membrane by the PIP3s, an energy transfer between the luciferase that is coupled to the PH domain of Akt and the membrane YFP protein takes place. The measured BRET signal is a control of the production of PIP3s at the membrane and is a reflection of the activation of the PI-3-kinase/Akt pathway in real time on cells.

IR-Grb14 interaction = target: T1, IR-Grb14 interaction (Homo sapiens, UniProt P06213); assay: IR-Luc/Grb14-YFP BRET technique in a cell-free system; format: binding; settings: for % BRET signal/DMSO control / remaining activity at 50 µM: insulin stimulation (100 nM)
T1 construct: a vector encoding the insulin receptor fused to the luciferase (IR-Luc); made in house; host or cells: HEK293T (transfected); IR-Luc was partially purified on wheat germ lectin sepharose; Grb14-YFP was used as crude lysate
Protocol: Compounds according to the invention were experimentally assessed for their inhibitory effect on the IR-Grb14 interaction by a BRET technique in a cell-free system described briefly below.
On the one hand, HEK293T cells were transfected with a vector encoding the insulin receptor fused to the luciferase (IR-Luc). Before lysis, the cells transfected with IR-Luc were stimulated or not with 100 nM insulin for 10 minutes. The IR-Luc lysates were recovered and then purified on sepharose beads coupled with wheat germ lectin (WGL for Wheat Germ Lectin). The IR-Luc receptors were then eluted and then frozen in liquid nitrogen before being stored at −80° C. On the other hand, HEK293T cells were transfected either with a vector encoding the Grb14 protein fused to the YFP (Grb14-YFP), or with the empty plasmid pcDNA3. The cells transfected with Grb14-YFP or with the empty plasmid pcDNA3 were lysed 48 h after transfection. After centrifugation, the lysates are recovered and frozen at −80° C.
The insulin receptors (IR-Luc) partially purified from cells stimulated or not with insulin were incubated for 20 minutes with the inhibitor compounds according to the invention suspended in DMSO. The cellular extracts from cells transfected with Grb14-YFP (or the empty plasmid pcDNA3) were then added and then after 40 minutes of incubation, coelenterazine was added and BRET reading was initiated. The results are expressed as a percentage of the BRET signal obtained in the presence of the molecules tested compared to the BRET signal of the DMSO control.

[1] = tested on: PEPCK and G6Pase expression; assay: Expression of neoglucogenesis genes in hepatocytes in primary culture (RT-qPCR); format: cell-based, mice; settings: 1 nM insulin; glucagon 10 nM
Protocol: FIG. 6, the effect of the compound of Formula (Ia) according to the invention (black bars) on the expression of insulin target genes, PEPCK (FIG. 6A) and G6Pase (FIG. 6B), involved in the neoglucogenesis pathway. Hepatocytes in primary culture are cultured for 8 h in the presence of compounds of Formula (Ia) (50 μM), insulin (1 nM) and glucagon (pre-incubation 1 h at 10 nM). The relative quantification of mRNAs is performed by RT-qPCR. The values are related to the quantification of the 18S gene in the same sample in order to normalize the results. The results are the average of 3 to 5 independent experiments (*p<0.05, **p<0.01, by Anova followed by a Newman-Keuls test).
To study the inhibitory effect of insulin on neoglucogenesis gene expression, hepatocytes from mice in primary culture were pre-incubated with 10 nM glucagon.

[2] = read-out: % BRET signal/DMSO control, 50 μM
[3] = in the presence of insulin (5 nM)

T1 sequence (P06213 763-1382 limits assumed): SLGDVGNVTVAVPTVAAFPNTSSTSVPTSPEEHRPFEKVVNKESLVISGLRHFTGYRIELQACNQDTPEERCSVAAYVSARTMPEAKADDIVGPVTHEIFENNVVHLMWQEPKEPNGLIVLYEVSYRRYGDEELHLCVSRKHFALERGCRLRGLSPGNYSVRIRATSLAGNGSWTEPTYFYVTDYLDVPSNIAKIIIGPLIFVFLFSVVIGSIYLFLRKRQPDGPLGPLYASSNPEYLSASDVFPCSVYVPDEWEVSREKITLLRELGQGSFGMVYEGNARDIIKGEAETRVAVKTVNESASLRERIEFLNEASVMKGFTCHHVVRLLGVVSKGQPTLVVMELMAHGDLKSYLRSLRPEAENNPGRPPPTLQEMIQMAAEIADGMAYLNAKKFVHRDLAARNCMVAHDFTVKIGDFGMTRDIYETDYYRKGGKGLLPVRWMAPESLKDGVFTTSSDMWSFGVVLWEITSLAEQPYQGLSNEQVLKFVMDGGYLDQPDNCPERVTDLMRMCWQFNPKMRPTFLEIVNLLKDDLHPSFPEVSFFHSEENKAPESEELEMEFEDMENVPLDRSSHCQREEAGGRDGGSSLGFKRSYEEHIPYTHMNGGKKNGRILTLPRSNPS
T1 sequence (P06213 28-758 partner limits assumed): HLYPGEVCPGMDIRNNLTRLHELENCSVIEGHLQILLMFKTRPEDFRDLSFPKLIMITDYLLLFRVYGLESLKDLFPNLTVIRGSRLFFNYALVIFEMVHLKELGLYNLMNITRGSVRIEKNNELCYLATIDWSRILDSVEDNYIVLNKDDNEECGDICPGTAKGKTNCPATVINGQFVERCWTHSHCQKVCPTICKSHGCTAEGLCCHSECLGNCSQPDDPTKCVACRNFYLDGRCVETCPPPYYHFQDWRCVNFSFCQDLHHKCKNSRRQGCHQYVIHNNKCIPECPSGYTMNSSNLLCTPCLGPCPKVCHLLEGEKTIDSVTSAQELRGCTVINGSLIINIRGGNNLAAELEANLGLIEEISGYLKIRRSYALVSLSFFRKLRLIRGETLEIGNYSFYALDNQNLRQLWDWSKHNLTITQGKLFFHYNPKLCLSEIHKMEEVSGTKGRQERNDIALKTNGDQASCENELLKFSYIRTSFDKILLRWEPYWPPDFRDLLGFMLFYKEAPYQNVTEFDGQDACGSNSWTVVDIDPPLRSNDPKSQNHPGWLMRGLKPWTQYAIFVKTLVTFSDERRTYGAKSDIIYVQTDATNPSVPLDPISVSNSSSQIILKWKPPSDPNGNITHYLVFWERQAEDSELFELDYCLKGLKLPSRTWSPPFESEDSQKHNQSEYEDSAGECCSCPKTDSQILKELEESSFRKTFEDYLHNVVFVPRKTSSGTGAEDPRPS

Compound	significant decrease in the BRET signal / reduction in the IR-Grb14 interaction (in words) (IR-Grb14 interaction; 50 μM)	% BRET signal/DMSO control (IR-Grb14 interaction; 50 μM)	remaining activity at 50 µM (IR-Grb14 interaction; [2])	further results
CC(C)(C)c1cc(C=C(C#N)C#N)cc(Br)c1O [AG1024, reference compound]				BRET signal after inhibition of tyrosine kinase activity of the insulin receptor (PI3K/Akt pathway; pre-incubation 1 h with 25 μM): very significant drop
CCOc1cc(C=C2C(=O)NC(=O)NC2=O)ccc1OCc1cccc(C(=O)O)c1 [Comparative A]	do not allow for a significant decrease	103% (+/−15%)		
CCOc1cc(C=C2C(=O)NC(=O)NC2=O)ccc1OCc1cccc(C(=O)O)c1 [Comparative B]	do not allow for a significant decrease	93% (+/−7%)		
CCOc1cc(C=C2C(=O)NC(=O)NC2=O)ccc1OCc1cccc(C(=O)O)c1 [Comparative C]	do not allow for a significant decrease	103% (+/−8%)		
CCOc1cc(C=C2C(=O)NC(=O)NC2=O)ccc1OCc1cccc(C(=O)O)c1 [Comparative D]	do not allow for a significant decrease	121% (+/−8%)		
CCOc1cc(C=C2C(=O)NC(=O)NC2=O)ccc1OCc1cccc(C(=O)O)c1 [Comparative E]	do not allow for a significant decrease	98% (+/−9%)		
CCOc1cc(C=C2C(=O)NC(=O)NC2=O)ccc1OCc1cccc(C(=O)O)c1 [Comparative F]	do not allow for a significant decrease	93% (+/−24%)		
Cc1ccc(/C=C/C(=O)O)o1 [Comparative IVa, (E)-3-(5-methylfuran-2-yl)acrylic acid, reference compound]	do not allow for a reduction		91%	effect on the recruitment of kinase Akt to the membrane (PI3K/Akt pathway): no effect; BRET delta (PI3K/Akt pathway; [3]): −61 (+/−35); reduction of the recruitment of the Akt protein to the membrane (PI3K/Akt pathway; [3]): about 50%
Cc1noc(NS(=O)(=O)c2ccc(N)cc2)c1C [Comparative Va, 4-amino-N-(3,4-dimethyl-1,2-oxazol-5-yl)benzenesulfonamide, reference compound]	do not allow for a reduction		98%	effect on the recruitment of kinase Akt to the membrane (PI3K/Akt pathway): no effect; BRET delta (PI3K/Akt pathway; [3]): −27 (+/−23); effect on the production of PIP3s at the membrane (PI3K/Akt pathway; [3]): no effect
COc1cc(C=C2C(=O)NC(=S)NC2=O)ccc1OCc1cccc(C(=O)O)c1 [IIc]			75%	decrease in the BRET signal between the insulin receptor and the Grb14 protein (IR-Grb14 interaction; 50 μM, with insulin stimulation): 25%
O=C1NC(=S)NC(=O)C1=Cc1ccc(OCc2cccc(C(=O)O)c2)cc1 [IId]			69%	BRET delta (PI3K/Akt pathway; without insulin): 67 (+/−33)
CCOc1cc(C=C2C(=O)NC(=S)NC2=O)ccc1OCc1ccc(C(=O)O)cc1 [IIe]			65%	BRET delta (PI3K/Akt pathway; without insulin): 96 (+/−50)
CCOc1ccc(/C=C2/C(=O)NC(=S)N(c3ccccc3)C2=O)cc1C(=O)O [IIf]			65%	BRET delta (PI3K/Akt pathway; without insulin): 54 (+/−44)
CCc1ccc(/C=C/C(=O)Nc2ccc(S(=O)(=O)Nc3onc(C)c3C)cc2)o1 [Ib]				remaining activity at 50 µM (IR-Grb14 interaction; 50 μM, read-out: % BRET signal/DMSO control): 58%; BRET delta (PI3K/Akt pathway; without insulin): 119 (+/−26)
insulin				inhibition of glucagon-induced G6Pase expression [1]: 60 to 70%; inhibition of glucagon-induced PEPCK expression [1]: 60 to 70%; effect on the recruitment of the Akt protein to the membrane after AG1024 (PI3K/Akt pathway; cells pre-incubated 1 h with 25 μM AG1024, Ia 50 μM, insulin 5 nM): no longer have any effect; BRET delta (PI3K/Akt pathway; insulin 5 nM alone): about 100
